Article PMC12248599, “Exploring the Bioavailability of Red Grape Skin Extract Polyphenols: A Caco-2 Cell Model Study” (Foods, 2025)
Values joined by “and” are separate entries in the source; they are usually repeats but may differ in a detail not shown here. Identical values can stand only once. “Also recorded” adds a separate entry of the source. Marks after values point to notes of the source that are not given here.

System: Caco-2 cell monolayer
Assay: Caco-2 monolayer transport (bioavailability) study, AB and BA directions
Assay type: in vitro ADME, Homo sapiens
Settings: for detection at the acceptor side of the Caco-2 cell monolayer: AB and BA experiments; for TE (%) transport efficiency: after 180 min
Experimental: A reversed phase C18 column (Luna 5 μm C18(2) 100 Å, LC Column 250 × 4.6 mm, Phenomenex) was used to separate the polyphenols at a flow rate of 0.7 mL/min with an injection volume of 60 µL. The detection was carried out at 520 nm for anthocyanins (M3G, D3G and Pet3G), at 328 nm for CA, at 356 nm for flavonols (Q3G, K3Gal and K3G) and at 280 nm for GA and SA. The mobile phases were (A) acetonitrile 100% and (B) water 0.1% trifluoroacetic acid (v/v). The gradient was programmed as follows: 10% A 0 min, 10–80% A (0–20 min), 80–100% A (20–25 min), 100% A (25–30 min); 10% A (30–35 min) and 10% A (35–40 min). Every polyphenol was quantified using the corresponding reference standard calibration curve. Each of the quantified phenolic compound concentration was expressed as mg/mL
For the transport experiment Caco-2 cells were cultured at a density of 4 × 10^4 cells/cm^2 in Transwell inserts (12 mm i.d., 1.12 cm^2 growth area, 0.4 µm mean pore size polycarbonate membranes, Corning Inc., Milwaukee, WI, USA) placed in 12-well plates. Caco-2 cells were grown in DMEM in an incubator at 37 °C in a humidified atmosphere containing 5% CO2.
Bioavailability studies were performed in triplicate after 21 days of cell growth. Only inserts with stable TEER values higher than ≥300 Ω cm^2 were considered acceptable to perform the bioavailability study. For that purpose, DMEM media was removed, the monolayer was washed with PBS and HBSS was supplied to the cells.
Likewise, the GSE stock solution was diluted in HBSS medium to prepare GSE solutions S1 and S2. GSE solutions S1 and S2 had concentrations of 15 mg/mL and 22 mg/mL, respectively. These concentrations were established considering previous studies with grape pomace extracts that concluded that intestinal concentrations of 1–2% (w/v) show potential bioactivities and are safe to be used as a food ingredient.
The apical side represents the intestinal lumen and the basolateral side represents the bloodstream. Each sample (100 µL) was immediately acidified with 1M HCl to a final concentration of 0.007 M and subsequently frozen at −20 °C until analysis by HPLC (according to the method described in Section 2.5). Each experiment was carried out on 3 individual wells. The transport efficiency (TE) percentage was calculated according to Equation (2):Transport efficiency (%) = (C/C0) × 100(2) where, C is the polyphenol concentration at the acceptor side over time and C0 is the initial concentration at the donor side. TE values were calculated for the nine polyphenols identified in the grape skin extract.
The apparent permeability coefficient (Papp) of the polyphenols in GSE was calculated for apical to basolateral side (AB) and basolateral to apical side (BA) flux studies according to Equation (3):Papp (cm/s) = (dQ/dt) × (VR/AC0)(3) where, dQ/dt is the permeability rate which means the steady-state linear rate of change of concentration (mg/L) per second (s) at the acceptor side; A is the surface area of the cell monolayer (1.12 cm^2). C0 is the initial concentration at the donor side (mg/L) at t = 0 s and VR is the volume of the solution of the acceptor side (mL).
The efflux ratio (ER) of the polyphenol was assessed by calculating the Equation (4):ER = Papp (BA)/Papp (AB)(4) where, Papp (BA) is the apparent permeability coefficient of the polyphenol from basolateral to apical side and Papp (AB) is the apparent permeability coefficient from apical to basolateral side. ER is a measure of the relative contributions of active and passive transport to bi-direction flux across the cell monolayer.

[1] = AB experiment, donor side, S1 (15 mg/mL GSE)
[2] = AB experiment, donor side, S2 (22 mg/mL GSE)
[3] = BA experiment, donor side, S1 (15 mg/mL GSE)
[4] = BA experiment, donor side, S2 (22 mg/mL GSE)
[5] = BA experiment, acceptor side, S1 (15 mg/mL GSE)
[6] = BA experiment, acceptor side, S2 (22 mg/mL GSE)

SMILES | Apical Side 0 min [1] | Apical Side 75 min [1] | Apical Side 90 min [1] | Apical Side 115 min [1] | Apical Side 180 min [1] | Apical Side 0 min [2] | Apical Side 75 min [2] | Apical Side 90 min [2] | Apical Side 115 min [2] | Apical Side 180 min [2] | Basolateral Side 0 min [3] | Basolateral Side 75 min [3] | Basolateral Side 90 min [3] | Basolateral Side 115 min [3] | Basolateral Side 180 min [3] | Basolateral Side 0 min [4] | Basolateral Side 75 min [4] | Basolateral Side 90 min [4] | Basolateral Side 115 min [4] | Basolateral Side 180 min [4] | further results
OC[C@H]1O[C@@H](Oc2cc3c(O)cc(O)cc3[o+]c2-c2cc(O)c(O)c(O)c2)[C@H](O)[C@@H](O)[C@@H]1O [D3G, delphinidin-3-O-glucoside] | 2.1 ± 0.2 ^a mg/L | 1.9 ± 0.2 ^a,b mg/L | 1.8 ± 0.1 ^b,c mg/L | 1.6 ± 0.1 ^c mg/L | 1.5 ± 0.1 ^c mg/L | 4.7 ± 0.1 ^a mg/L | 4.4 ± 0.1 ^b mg/L | 4.3 ± 0.1 ^c mg/L | 4.05 ± 0.09 ^c mg/L | 3.94 ± 0.08 ^c mg/L | 2.7 ± 0.2 ^a mg/L | 2.6 ± 0.2 ^a,b mg/L | 2.5 ± 0.2 ^b,c mg/L | 2.4 ± 0.2 ^b,c mg/L | 2.3 ± 0.2 ^c mg/L | 3.6 ± 0.2 ^a mg/L | 3.5 ± 0.2 ^a mg/L | 3.4 ± 0.2 ^a mg/L | 3.4 ± 0.2 ^d mg/L | 3.4 ± 0.2 ^a mg/L | detection at the acceptor side of the Caco-2 cell monolayer: not detected
O=c1c(OC2O[C@H](CO)[C@H](O)[C@H](O)[C@H]2O)c(-c2ccc(O)cc2)oc2cc(O)cc(O)c12 (stereo partly drawn) [K3Gal, kaempferol-3-galactoside] | 0.63 ± 0.02 ^a mg/L | 0.52 ± 0.02 ^b mg/L | 0.45 ± 0.02 ^c mg/L | 0.39 ± 0.01 ^d mg/L | 0.35 ± 0.01 ^c mg/L | 1.23 ± 0.02 ^a mg/L | 1.09 ± 0.02 ^b mg/L | 1.01 ± 0.02 ^c mg/L | 0.88 ± 0.02 ^d mg/L | 0.79 ± 0.02 ^c mg/L | 0.26 ± 0.01 mg/L and 0.26 ± 0.01 ^a mg/L | 0.19 ± 0.01 ^b mg/L | 0.13 ± 0.01 ^c mg/L | 0.08 ± 0.01 ^d mg/L | 0.05 ± 0.01 mg/L and 0.05 ± 0.01 ^c mg/L | 0.79 ± 0.02 ^a mg/L | 0.75 ± 0.02 ^b mg/L | 0.71 ± 0.02 ^c mg/L | 0.67 ± 0.02 ^d mg/L | 0.64 ± 0.01 ^c mg/L | detection at the acceptor side of the Caco-2 cell monolayer: not detected; reduction in concentration on the basolateral (donor) side (BA experiment, S1 (15 mg/mL GSE), 0 to 180 min): 81 ± 2%
COc1cc(-c2[o+]c3cc(O)cc(O)c3cc2O[C@@H]2O[C@H](CO)[C@@H](O)[C@H](O)[C@H]2O)cc(O)c1O [Pet3G, petunidin-3-O-glucoside] | 1.8 ± 0.1 ^a mg/L | 1.4 ± 0.1 ^b mg/L | 1.2 ± 0.1 ^c mg/L | 1.02 ± 0.10 ^c,d mg/L | 0.9 ± 0.1 ^d mg/L | 4.4 ± 0.2 ^a mg/L | 4.0 ± 0.1 ^b mg/L | 3.7 ± 0.1 ^c mg/L | 3.33 ± 0.09 ^c mg/L | 3.16 ± 0.08 ^c mg/L | 4.3 ± 0.1 ^a mg/L | 4.0 ± 0.1 ^b mg/L | 3.8 ± 0.1 ^b,c mg/L | 3.65 ± 0.09 ^c,d mg/L | 3.49 ± 0.08 ^d mg/L | 3.1 ± 0.2 ^a mg/L | 3.0 ± 0.2 ^a mg/L | 2.9 ± 0.2 ^a mg/L | 2.7 ± 0.2 ^a mg/L | 2.7 ± 0.2 ^a mg/L | detection at the acceptor side of the Caco-2 cell monolayer: not detected
O=c1c(O[C@@H]2O[C@H](CO)[C@@H](O)[C@H](O)[C@H]2O)c(-c2ccc(O)c(O)c2)oc2cc(O)cc(O)c12 [Q3G, quercetin-3-glucoside] | 0.23 ± 0.01 ^a mg/L | 0.18 ± 0.01 ^b mg/L | 0.14 ± 0.01 ^c mg/L | 0.10 ± 0.00 ^d mg/L | 0.08 ± 0.00 ^c mg/L | 0.61 ± 0.01 ^a mg/L | 0.52 ± 0.01 ^b mg/L | 0.47 ± 0.01 ^c mg/L | 0.41 ± 0.01 ^d mg/L | 0.37 ± 0.01 ^c mg/L | 0.28 ± 0.02 ^a mg/L | 0.24 ± 0.02 ^b mg/L | 0.21 ± 0.02 ^c mg/L | 0.18 ± 0.01 ^d mg/L | 0.15 ± 0.01 ^c mg/L | 0.41 ± 0.03 ^a mg/L | 0.38 ± 0.03 ^a,b mg/L | 0.36 ± 0.03 ^a,b,c mg/L | 0.34 ± 0.03 ^b,c mg/L | 0.32 ± 0.03 ^c mg/L | detection at the acceptor side (AB experiments, basolateral side): not detected; TE (%) transport efficiency (BA experiment, S1 (15 mg/mL GSE)): 4.1 ± 0.1%; TE (%) transport efficiency (BA experiment, S2 (22 mg/mL GSE)): 3.6 ± 0.1%; Apical Side 75 min [5]: 0.009 ± 0.001 ^b mg/L; Apical Side 90 min [5]: 0.010 ± 0.001 ^b,c mg/L; Apical Side 115 min [5]: 0.011 ± 0.001 ^c mg/L; Apical Side 180 min [5]: 0.011 ± 0.001 ^c mg/L; Apical Side 75 min [6]: 0.013 ± 0.001 ^b mg/L; Apical Side 90 min [6]: 0.013 ± 0.001 ^b,c mg/L; Apical Side 115 min [6]: 0.014 ± 0.001 ^c,d mg/L; Apical Side 180 min [6]: 0.015 ± 0.001 ^d mg/L; detection at the acceptor side (BA experiments, apical side): detected; also recorded: quantified
